Tests used:
CDK16_cyclinY = biological target: T1, CDK16_cyclinY (Homo sapiens, UniProt Q00536); test: Proqinase Kinase profiling; assay type: biochemical; conditions: read-out: % inhibition at 100nM
T1 construct: purchased DiscoverX

EPHB1 = biological target: T2, EPHB1 (Homo sapiens, UniProt P54762); test: Proqinase Kinase profiling; assay type: biochemical; conditions: read-out: % inhibition at 100nM
T2 construct: purchased DiscoverX

CDK9_cyclinK = biological target: T3, CDK9_cyclinK (Homo sapiens, UniProt P50750); test: Proqinase Kinase profiling; assay type: biochemical; conditions: read-out: % inhibition at 100nM
T3 construct: purchased DiscoverX

PIM2 = biological target: T4, PIM2 (Homo sapiens, UniProt Q9P1W9); test: Proqinase Kinase profiling; assay type: biochemical; conditions: read-out: % inhibition at 100nM
T4 construct: purchased DiscoverX

KIT_D816H = biological target: T5, KIT_D816H (Homo sapiens, UniProt P10721, D816H); test: Proqinase Kinase profiling; assay type: biochemical; conditions: read-out: % inhibition at 100nM
T5 construct: purchased DiscoverX

RET_G691S = biological target: T6, RET_G691S (Homo sapiens, UniProt P07949, G691S); test: Proqinase Kinase profiling; assay type: biochemical; conditions: read-out: % inhibition at 100nM
T6 construct: purchased DiscoverX

EPHA2 = biological target: T7, EPHA2 (Homo sapiens, UniProt P29317); test: Proqinase Kinase profiling; assay type: biochemical; conditions: read-out: % inhibition at 100nM
T7 construct: purchased DiscoverX

CDK3_cyclinE = biological target: T8, CDK3_cyclinE (Homo sapiens, UniProt Q00526); test: Proqinase Kinase profiling; assay type: biochemical; conditions: read-out: % inhibition at 100nM
T8 construct: purchased DiscoverX

WNK2 = biological target: T9, WNK2 (Homo sapiens, UniProt Q9Y3S1); test: Proqinase Kinase profiling; assay type: biochemical; conditions: read-out: % inhibition at 100nM
T9 construct: purchased DiscoverX

IRAK1 = biological target: T10, IRAK1 (Homo sapiens, UniProt P51617); test: Proqinase Kinase profiling; assay type: biochemical; conditions: read-out: % inhibition at 100nM
T10 construct: purchased DiscoverX

EIF2AK2 = biological target: T11, EIF2AK2 (Homo sapiens, UniProt P19525); test: Proqinase Kinase profiling; assay type: biochemical; conditions: read-out: % inhibition at 100nM
T11 construct: purchased DiscoverX

EPHB4 = biological target: T12, EPHB4 (Homo sapiens, UniProt P54760); test: Proqinase Kinase profiling; assay type: biochemical; conditions: read-out: % inhibition at 100nM
T12 construct: purchased DiscoverX

EPHA4 = biological target: T13, EPHA4 (Homo sapiens, UniProt P54764); test: Proqinase Kinase profiling; assay type: biochemical; conditions: read-out: % inhibition at 100nM
T13 construct: purchased DiscoverX

NEK6 = biological target: T14, NEK6 (Homo sapiens, UniProt Q9HC98); test: Proqinase Kinase profiling; assay type: biochemical; conditions: read-out: % inhibition at 100nM
T14 construct: purchased DiscoverX

RPS6KA5 = biological target: T15, RPS6KA5 (Homo sapiens, UniProt O75582); test: Proqinase Kinase profiling; assay type: biochemical; conditions: read-out: % inhibition at 100nM
T15 construct: purchased DiscoverX

ABL1_H396P = biological target: T16, ABL1_H396P (Homo sapiens, UniProt P00519, H396P); test: Proqinase Kinase profiling; assay type: biochemical; conditions: read-out: % inhibition at 100nM
T16 construct: purchased DiscoverX

PKN2 = biological target: T17, PKN2 (Homo sapiens, UniProt Q16513); test: Proqinase Kinase profiling; assay type: biochemical; conditions: read-out: % inhibition at 100nM
T17 construct: purchased DiscoverX

EPHA5 = biological target: T18, EPHA5 (Homo sapiens, UniProt P54756); test: Proqinase Kinase profiling; assay type: biochemical; conditions: read-out: % inhibition at 100nM
T18 construct: purchased DiscoverX

TLK2 = biological target: T19, TLK2 (Homo sapiens, UniProt Q86UE8); test: Proqinase Kinase profiling; assay type: biochemical; conditions: read-out: % inhibition at 100nM
T19 construct: purchased DiscoverX

PASK = biological target: T20, PASK (Homo sapiens, UniProt Q96RG2); test: Proqinase Kinase profiling; assay type: biochemical; conditions: read-out: % inhibition at 100nM
T20 construct: purchased DiscoverX

MKNK1 = biological target: T21, MKNK1 (Homo sapiens, UniProt Q9BUB5); test: Proqinase Kinase profiling; assay type: biochemical; conditions: read-out: % inhibition at 100nM
T21 construct: purchased DiscoverX

WT ALK2 receptor = biological target: T22, WT ALK2 receptor (Homo sapiens, UniProt Q04771); test: BRE-LUC reporter assay in C2C12 cells cotransfected with WT ALK2; assay type: cell-based; conditions: BMP-6 50 ng/mL 16 hours, 30-min preincubation, read-out: ALK2wt BMP-6 IC50
T22 construct: expressed in transfected cells; host or cells: C2C12 murine myofibroblast cells
Method: For luciferase reporter assays, cells were seeded in 24-well plates and transfected with DharmaFECT Duo (Fisher Scientific, Landsmeer, The Netherlands), following the recommendations of the manufacturer. 48 hours after transfection the cells were harvested and lysed. […] Each transfection mixture was equalized with empty vector when necessary and every experiment was performed in triplicate.

TYK2 = biological target: T23, TYK2 (Homo sapiens, UniProt P29597); test: Proqinase Kinase profiling; assay type: biochemical; conditions: read-out: % inhibition at 100nM
T23 construct: purchased DiscoverX

EIF2AK1 = biological target: T24, EIF2AK1 (Homo sapiens, UniProt Q9BQI3); test: Proqinase Kinase profiling; assay type: biochemical; conditions: read-out: % inhibition at 100nM
T24 construct: purchased DiscoverX

LIMK1 = biological target: T25, LIMK1 (Homo sapiens, UniProt P53667); test: Proqinase Kinase profiling; assay type: biochemical; conditions: read-out: % inhibition at 100nM
T25 construct: purchased DiscoverX

CAMK2A = biological target: T26, CAMK2A (Homo sapiens, UniProt Q9UQM7); test: Proqinase Kinase profiling; assay type: biochemical; conditions: read-out: % inhibition at 100nM
T26 construct: purchased DiscoverX

AURKB = biological target: T27, AURKB (Homo sapiens, UniProt Q96GD4); test: Proqinase Kinase profiling; assay type: biochemical; conditions: read-out: % inhibition at 100nM
T27 construct: purchased DiscoverX

GSK3B = biological target: T28, GSK3B (Homo sapiens, UniProt P49841); test: Proqinase Kinase profiling; assay type: biochemical; conditions: read-out: % inhibition at 100nM
T28 construct: purchased DiscoverX

PHKG2 = biological target: T29, PHKG2 (Homo sapiens, UniProt P15735); test: Proqinase Kinase profiling; assay type: biochemical; conditions: read-out: % inhibition at 100nM
T29 construct: purchased DiscoverX

LIMK2 = biological target: T30, LIMK2 (Homo sapiens, UniProt P53671); test: Proqinase Kinase profiling; assay type: biochemical; conditions: read-out: % inhibition at 100nM
T30 construct: purchased DiscoverX

MAPKAPK5 = biological target: T31, MAPKAPK5 (Homo sapiens, UniProt Q8IW41); test: Proqinase Kinase profiling; assay type: biochemical; conditions: read-out: % inhibition at 100nM
T31 construct: purchased DiscoverX

PRKCZ = biological target: T32, PRKCZ (Homo sapiens, UniProt Q05513); test: Proqinase Kinase profiling; assay type: biochemical; conditions: read-out: % inhibition at 100nM
T32 construct: purchased DiscoverX

ACVR1B = biological target: T33, ACVR1B (Homo sapiens, UniProt P36896); test: Proqinase Kinase profiling; assay type: biochemical; conditions: read-out: % inhibition at 100nM
T33 construct: purchased DiscoverX

FGFR3_G697C = biological target: T34, FGFR3_G697C (Homo sapiens, UniProt P22607, G697C); test: Proqinase Kinase profiling; assay type: biochemical; conditions: read-out: % inhibition at 100nM
T34 construct: purchased DiscoverX

NEK1 = biological target: T35, NEK1 (Homo sapiens, UniProt Q96PY6); test: Proqinase Kinase profiling; assay type: biochemical; conditions: read-out: % inhibition at 100nM
T35 construct: purchased DiscoverX

DYRK1A = biological target: T36, DYRK1A (Homo sapiens, UniProt Q13627); test: Proqinase Kinase profiling; assay type: biochemical; conditions: read-out: % inhibition at 100nM
T36 construct: purchased DiscoverX

EPHB3 = biological target: T37, EPHB3 (Homo sapiens, UniProt P54753); test: Proqinase Kinase profiling; assay type: biochemical; conditions: read-out: % inhibition at 100nM
T37 construct: purchased DiscoverX

CAMK4 = biological target: T38, CAMK4 (Homo sapiens, UniProt Q16566); test: Proqinase Kinase profiling; assay type: biochemical; conditions: read-out: % inhibition at 100nM
T38 construct: purchased DiscoverX

MELK = biological target: T39, MELK (Homo sapiens, UniProt Q14680); test: Proqinase Kinase profiling; assay type: biochemical; conditions: read-out: % inhibition at 100nM
T39 construct: purchased DiscoverX

PRKG2 = biological target: T40, PRKG2 (Homo sapiens, UniProt Q13237); test: Proqinase Kinase profiling; assay type: biochemical; conditions: read-out: % inhibition at 100nM
T40 construct: purchased DiscoverX

T5 sequence (P10721 26-976 D816H): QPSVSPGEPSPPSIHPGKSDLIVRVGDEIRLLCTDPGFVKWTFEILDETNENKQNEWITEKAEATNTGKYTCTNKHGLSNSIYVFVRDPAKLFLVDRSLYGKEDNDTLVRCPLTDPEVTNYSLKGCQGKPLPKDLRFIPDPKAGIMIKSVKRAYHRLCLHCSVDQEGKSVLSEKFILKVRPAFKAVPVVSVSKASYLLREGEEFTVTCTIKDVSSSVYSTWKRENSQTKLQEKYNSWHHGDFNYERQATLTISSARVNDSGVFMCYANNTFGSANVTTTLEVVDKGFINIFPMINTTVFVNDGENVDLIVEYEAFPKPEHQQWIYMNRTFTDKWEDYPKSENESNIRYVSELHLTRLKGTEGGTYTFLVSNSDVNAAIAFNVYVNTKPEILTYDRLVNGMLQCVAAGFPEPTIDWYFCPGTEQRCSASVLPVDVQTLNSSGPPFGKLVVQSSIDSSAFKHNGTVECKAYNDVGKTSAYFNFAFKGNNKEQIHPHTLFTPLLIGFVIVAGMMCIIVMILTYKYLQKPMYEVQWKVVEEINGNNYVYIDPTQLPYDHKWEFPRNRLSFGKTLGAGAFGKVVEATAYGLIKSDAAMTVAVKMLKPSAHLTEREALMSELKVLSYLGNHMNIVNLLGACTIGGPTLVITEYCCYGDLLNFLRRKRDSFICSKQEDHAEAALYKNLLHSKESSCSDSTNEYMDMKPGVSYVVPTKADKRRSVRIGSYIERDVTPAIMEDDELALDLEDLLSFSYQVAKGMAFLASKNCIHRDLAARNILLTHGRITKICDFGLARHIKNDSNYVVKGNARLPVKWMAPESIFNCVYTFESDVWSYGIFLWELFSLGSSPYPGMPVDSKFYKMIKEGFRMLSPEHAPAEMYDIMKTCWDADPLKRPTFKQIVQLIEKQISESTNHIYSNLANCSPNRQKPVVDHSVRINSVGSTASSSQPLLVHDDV
T6 sequence (P07949 29-1114 G691S): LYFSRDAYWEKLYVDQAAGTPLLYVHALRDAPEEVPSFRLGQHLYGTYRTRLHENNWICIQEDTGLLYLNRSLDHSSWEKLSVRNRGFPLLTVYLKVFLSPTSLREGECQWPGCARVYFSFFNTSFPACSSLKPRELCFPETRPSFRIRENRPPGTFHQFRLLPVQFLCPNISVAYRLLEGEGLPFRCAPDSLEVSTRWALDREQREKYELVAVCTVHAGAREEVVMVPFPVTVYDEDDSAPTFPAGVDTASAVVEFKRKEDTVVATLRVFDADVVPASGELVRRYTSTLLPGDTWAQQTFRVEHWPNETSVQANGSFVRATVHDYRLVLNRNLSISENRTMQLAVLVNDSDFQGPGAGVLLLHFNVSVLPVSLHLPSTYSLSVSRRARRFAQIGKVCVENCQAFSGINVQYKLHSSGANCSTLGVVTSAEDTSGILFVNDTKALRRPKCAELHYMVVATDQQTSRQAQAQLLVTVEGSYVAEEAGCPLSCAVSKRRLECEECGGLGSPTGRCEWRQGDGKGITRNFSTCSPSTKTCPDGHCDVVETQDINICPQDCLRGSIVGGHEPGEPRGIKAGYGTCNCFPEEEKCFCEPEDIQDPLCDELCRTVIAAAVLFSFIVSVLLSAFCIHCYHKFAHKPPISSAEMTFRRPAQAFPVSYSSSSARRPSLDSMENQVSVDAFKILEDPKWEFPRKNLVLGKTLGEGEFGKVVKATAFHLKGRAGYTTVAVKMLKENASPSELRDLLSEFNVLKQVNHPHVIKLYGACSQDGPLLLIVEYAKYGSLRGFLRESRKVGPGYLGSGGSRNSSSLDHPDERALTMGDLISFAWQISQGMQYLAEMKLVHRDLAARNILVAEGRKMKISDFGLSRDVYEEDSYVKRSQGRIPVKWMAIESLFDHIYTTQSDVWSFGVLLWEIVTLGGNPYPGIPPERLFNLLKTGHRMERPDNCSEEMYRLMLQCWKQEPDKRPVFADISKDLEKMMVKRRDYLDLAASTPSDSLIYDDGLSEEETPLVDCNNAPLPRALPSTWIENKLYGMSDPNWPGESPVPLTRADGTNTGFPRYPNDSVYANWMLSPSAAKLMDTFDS
T39 sequence (Q14680 whole entry): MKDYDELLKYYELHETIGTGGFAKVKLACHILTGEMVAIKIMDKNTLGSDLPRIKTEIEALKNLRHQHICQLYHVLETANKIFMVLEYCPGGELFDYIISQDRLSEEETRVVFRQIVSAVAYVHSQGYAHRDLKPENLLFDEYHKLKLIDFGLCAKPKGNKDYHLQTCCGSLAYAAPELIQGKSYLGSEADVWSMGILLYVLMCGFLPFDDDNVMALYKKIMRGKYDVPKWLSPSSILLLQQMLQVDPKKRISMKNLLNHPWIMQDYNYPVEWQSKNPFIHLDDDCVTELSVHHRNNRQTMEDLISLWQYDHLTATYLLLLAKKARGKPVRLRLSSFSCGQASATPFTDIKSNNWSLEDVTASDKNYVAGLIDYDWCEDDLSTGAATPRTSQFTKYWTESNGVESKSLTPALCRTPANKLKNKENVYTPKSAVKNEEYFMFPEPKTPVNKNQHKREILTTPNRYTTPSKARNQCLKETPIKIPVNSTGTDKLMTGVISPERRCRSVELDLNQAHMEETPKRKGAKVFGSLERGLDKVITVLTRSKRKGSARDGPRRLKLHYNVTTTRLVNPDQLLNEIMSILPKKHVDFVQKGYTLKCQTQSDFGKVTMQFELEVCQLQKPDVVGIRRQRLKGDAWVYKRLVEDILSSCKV
T13 sequence (P54764 20-986): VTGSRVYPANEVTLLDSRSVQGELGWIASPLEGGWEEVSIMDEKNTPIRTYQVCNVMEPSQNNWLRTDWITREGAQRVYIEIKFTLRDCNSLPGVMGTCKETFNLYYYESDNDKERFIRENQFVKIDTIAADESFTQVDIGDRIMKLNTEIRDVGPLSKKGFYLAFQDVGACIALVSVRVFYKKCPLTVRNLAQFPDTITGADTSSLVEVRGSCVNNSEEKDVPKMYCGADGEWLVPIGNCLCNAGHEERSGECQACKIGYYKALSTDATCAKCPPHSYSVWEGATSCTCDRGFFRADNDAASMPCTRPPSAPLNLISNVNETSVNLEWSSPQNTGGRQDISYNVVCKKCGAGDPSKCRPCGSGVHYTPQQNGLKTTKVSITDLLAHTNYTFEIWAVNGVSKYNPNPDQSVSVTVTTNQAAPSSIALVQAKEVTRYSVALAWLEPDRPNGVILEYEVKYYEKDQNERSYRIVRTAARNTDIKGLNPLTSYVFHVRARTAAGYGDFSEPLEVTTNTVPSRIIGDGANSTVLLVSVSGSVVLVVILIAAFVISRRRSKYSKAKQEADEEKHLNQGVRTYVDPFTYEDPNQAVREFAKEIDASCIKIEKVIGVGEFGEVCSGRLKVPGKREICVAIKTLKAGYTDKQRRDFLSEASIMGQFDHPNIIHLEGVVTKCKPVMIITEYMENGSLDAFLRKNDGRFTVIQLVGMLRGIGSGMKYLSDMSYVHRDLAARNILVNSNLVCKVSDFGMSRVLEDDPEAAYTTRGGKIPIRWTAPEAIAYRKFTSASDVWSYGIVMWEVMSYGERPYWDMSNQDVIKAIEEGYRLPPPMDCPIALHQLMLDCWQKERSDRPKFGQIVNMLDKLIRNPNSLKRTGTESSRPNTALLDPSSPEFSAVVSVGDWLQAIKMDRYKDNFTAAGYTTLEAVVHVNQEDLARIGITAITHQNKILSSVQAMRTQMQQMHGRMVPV
T4 sequence (Q9P1W9 whole entry): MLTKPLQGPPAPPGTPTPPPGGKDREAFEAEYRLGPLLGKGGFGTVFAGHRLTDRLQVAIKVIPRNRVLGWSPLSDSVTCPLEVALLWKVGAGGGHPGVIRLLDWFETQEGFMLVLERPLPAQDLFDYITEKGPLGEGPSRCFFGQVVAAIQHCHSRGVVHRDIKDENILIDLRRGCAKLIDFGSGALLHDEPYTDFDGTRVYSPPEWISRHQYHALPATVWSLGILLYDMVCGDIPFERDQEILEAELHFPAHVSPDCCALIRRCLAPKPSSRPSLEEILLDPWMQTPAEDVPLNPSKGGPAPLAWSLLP
T31 sequence (Q8IW41 whole entry): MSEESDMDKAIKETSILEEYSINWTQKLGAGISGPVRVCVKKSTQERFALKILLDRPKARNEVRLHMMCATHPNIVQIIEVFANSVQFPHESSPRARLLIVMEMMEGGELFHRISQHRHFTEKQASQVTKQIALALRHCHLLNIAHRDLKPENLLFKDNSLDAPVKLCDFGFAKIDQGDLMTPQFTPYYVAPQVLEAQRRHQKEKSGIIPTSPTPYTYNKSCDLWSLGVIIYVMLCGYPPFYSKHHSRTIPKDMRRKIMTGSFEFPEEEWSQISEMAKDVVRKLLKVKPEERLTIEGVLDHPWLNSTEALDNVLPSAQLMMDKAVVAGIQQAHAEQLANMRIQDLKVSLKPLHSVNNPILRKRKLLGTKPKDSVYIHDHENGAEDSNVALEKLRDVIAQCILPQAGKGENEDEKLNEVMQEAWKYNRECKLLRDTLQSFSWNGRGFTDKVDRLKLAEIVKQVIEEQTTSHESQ
T24 sequence (Q9BQI3 whole entry): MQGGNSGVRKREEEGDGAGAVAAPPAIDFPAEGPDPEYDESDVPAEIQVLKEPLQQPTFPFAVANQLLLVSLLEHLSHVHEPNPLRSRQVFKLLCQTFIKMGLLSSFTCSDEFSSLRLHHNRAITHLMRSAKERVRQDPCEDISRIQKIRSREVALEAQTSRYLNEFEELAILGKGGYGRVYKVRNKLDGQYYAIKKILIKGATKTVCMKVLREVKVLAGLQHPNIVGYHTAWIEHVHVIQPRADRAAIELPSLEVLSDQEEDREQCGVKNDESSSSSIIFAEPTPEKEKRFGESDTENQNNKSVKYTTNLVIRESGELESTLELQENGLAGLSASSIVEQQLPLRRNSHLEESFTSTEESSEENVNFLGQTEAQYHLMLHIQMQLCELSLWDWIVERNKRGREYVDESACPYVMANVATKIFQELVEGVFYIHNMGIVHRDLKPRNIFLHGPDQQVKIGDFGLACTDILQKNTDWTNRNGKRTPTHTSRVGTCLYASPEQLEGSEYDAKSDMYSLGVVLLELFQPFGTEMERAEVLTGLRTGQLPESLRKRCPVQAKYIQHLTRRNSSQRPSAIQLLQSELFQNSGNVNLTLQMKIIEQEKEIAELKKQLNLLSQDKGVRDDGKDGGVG

Compound | inhibition at 0.1 µM (CDK16_cyclinY) | inhibition at 0.1 µM (EPHB1) | inhibition at 0.1 µM (CDK9_cyclinK) | inhibition at 0.1 µM (PIM2) | inhibition at 0.1 µM (KIT_D816H) | inhibition at 0.1 µM (RET_G691S) | inhibition at 0.1 µM (EPHA2) | inhibition at 0.1 µM (CDK3_cyclinE) | inhibition at 0.1 µM (WNK2) | inhibition at 0.1 µM (IRAK1) | inhibition at 0.1 µM (EIF2AK2) | inhibition at 0.1 µM (EPHB4) | inhibition at 0.1 µM (EPHA4) | inhibition at 0.1 µM (NEK6) | inhibition at 0.1 µM (RPS6KA5) | inhibition at 0.1 µM (ABL1_H396P) | inhibition at 0.1 µM (PKN2) | inhibition at 0.1 µM (EPHA5) | inhibition at 0.1 µM (TLK2) | inhibition at 0.1 µM (PASK) | further results
Clc1cc2cc(c1)-c1cnn3ccc(nc13)NCCOCCO2 [OD36] | 12% | -2% | 16% | 17% | 32% | 25% | 7% | 11% | 1% | 9% | 9% | 6% | -2% | -7% | -3% | 21% | 8% | 10% | 31% | 3% | inhibition at 0.1 µM (MKNK1): 23%; IC50 (WT ALK2 receptor): 308 nM; inhibition at 0.1 µM (TYK2): 14%; inhibition at 0.1 µM (EIF2AK1): -4%; inhibition at 0.1 µM (LIMK1): 16%; inhibition at 0.1 µM (CAMK2A): 18%; inhibition at 0.1 µM (AURKB): 16%; inhibition at 0.1 µM (GSK3B): 11%; inhibition at 0.1 µM (PHKG2): 1%; inhibition at 0.1 µM (LIMK2): 6%; inhibition at 0.1 µM (MAPKAPK5): 12%; inhibition at 0.1 µM (PRKCZ): -3%; inhibition at 0.1 µM (ACVR1B): 22%; inhibition at 0.1 µM (FGFR3_G697C): -1%; inhibition at 0.1 µM (NEK1): 14%; inhibition at 0.1 µM (DYRK1A): 7%; inhibition at 0.1 µM (EPHB3): 1%; inhibition at 0.1 µM (CAMK4): -4%; inhibition at 0.1 µM (MELK): 21%; inhibition at 0.1 µM (PRKG2): 14%
Cc1cc2cc(c1)-c1cnn3ccc(nc13)NCCNC(=O)CCN(C)C2 [OD52] | -2% | -26% | -7% | 4% | -14% | 24% | -6% | 5% | 17% | 16% | -1% | -25% | -7% | -12% | 7% | -12% | -3% | -1% | -5% | 3% | inhibition at 0.1 µM (MKNK1): -11%; IC50 (WT ALK2 receptor): 1570 nM; inhibition at 0.1 µM (TYK2): -3%; inhibition at 0.1 µM (EIF2AK1): 2%; inhibition at 0.1 µM (LIMK1): -5%; inhibition at 0.1 µM (CAMK2A): 25%; inhibition at 0.1 µM (AURKB): -4%; inhibition at 0.1 µM (GSK3B): -9%; inhibition at 0.1 µM (PHKG2): -10%; inhibition at 0.1 µM (LIMK2): 2%; inhibition at 0.1 µM (MAPKAPK5): 26%; inhibition at 0.1 µM (PRKCZ): 4%; inhibition at 0.1 µM (ACVR1B): 13%; inhibition at 0.1 µM (FGFR3_G697C): -10%; inhibition at 0.1 µM (NEK1): -4%; inhibition at 0.1 µM (DYRK1A): -4%; inhibition at 0.1 µM (EPHB3): -8%; inhibition at 0.1 µM (CAMK4): -23%; inhibition at 0.1 µM (MELK): 15%; inhibition at 0.1 µM (PRKG2): -10%
